Columns and labels:
FPRL2 [1] = molecular target: T1, FPRL2 (Homo sapiens, UniProt P25089); test: Aequorin-based assay on CHO-K1 cells expressing FPRL2, apoaequorin and Galpha16; assay type: cell-based; parameters: expressed in transfected cells; host or cells: CHO-K1 (with or without Galpha16 and apoaequorin); conditions: for concentrations required to activate FPRL2 (calcium): FPRL2-expressing CHO-K1 cells
T1 sequence (P25089 1-353): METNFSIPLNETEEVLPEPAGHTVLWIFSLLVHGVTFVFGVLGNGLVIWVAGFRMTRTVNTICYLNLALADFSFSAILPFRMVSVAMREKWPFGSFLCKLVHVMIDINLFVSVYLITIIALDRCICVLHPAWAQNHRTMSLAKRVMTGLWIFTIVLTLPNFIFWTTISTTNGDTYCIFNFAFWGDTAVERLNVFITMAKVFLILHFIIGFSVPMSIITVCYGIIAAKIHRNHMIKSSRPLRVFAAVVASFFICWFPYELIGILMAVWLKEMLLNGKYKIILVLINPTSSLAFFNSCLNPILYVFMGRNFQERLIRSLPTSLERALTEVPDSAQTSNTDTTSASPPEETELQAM
Experimental: Briefly, FPRL2 polypeptide-expressing clones are transfected to coexpress mitochondrial apoaequorin and Gα16. Cells are incubated with 5 μM Coelenterazine H (Molecular Probes) for 4 hours at room temperature, washed in DMEM-F12 culture medium and resuspended at a concentration of 0.5×10^6 cells/ml. Cells are then mixed with test agonist molecules and light emission by the aequorin is recorded with a luminometer for 30 sec. Results are expressed as Relative Light Units (RLU). Controls include assays using membranes isolated from cells not expressing FPRL2 polypeptide (mock transfected), in order to exclude possible non-specific effects of the candidate compound.
FPRL2 expressing clones have been obtained by transfection of CHO-K1 cells to coexpressing mitochondrial apoaequorin and Galpha16, limiting dilution and selection by northern blotting. Positive clones were used for screening with porcine spleen extracts prepared as described above. […] Briefly, cells were collected from plates in PBS containing 5 mM EDTA, pelleted and resuspended at 5×10^6 cells/ml in DMEM-F12 medium. Cells were incubated with 5 μM Coelenterazine H (Molecular Probes) for 4 hours at room temperature. Cells were then washed in DMEM-F12 medium and resuspended at a concentration of 0.5×10^6 cells/ml. Cells were then mixed with test agonist peptides or plates containing tissue extracts and the light emission was recorded for 30 sec using a Microlumat luminometer (Perlin Elmer). Results are expressed as Relative Light Units (RLU).
(§1) The human coding sequences (accession numbers AC005946, M84562 and M60626, respectively) were amplified by PCR from human genomic DNA, cloned into the pcDNA3 (Invitrogen) and pEFIN3 (Euroscreen) vectors and sequenced. The pEFIN3 constructs were transfected, using Fugene 6, into CHO-K1 cells, expressing or not Gα16 and apoaequorin. G418-resistant clones were characterized for receptor expression by Northern blotting. […] Results were expressed as relative light units (RLU) or as the percentage of the response to 20 μM ATP.
The cAMP concentrations were determined using a homogeneous time-resolved fluorescence (HTRF) kit (Cis Bio International). Briefly, cells were detached, resuspended in Krebs Ringer Hepes buffer containing 1 mM 3-Isobutyl-1-methylxanthine, and submitted to 10 μM forskolin, alone or together with increasing concentrations of agonists for 30 min at room temperature. The reaction was stopped by the successive addition of cAMP-XL665 and anti-cAMP cryptate diluted in lysis buffer. The plates were incubated for 60 min at room temperature and read on a Rubystar fluorimeter (BMG). […] A calibration curve was obtained by plotting delta F % versus cAMP concentrations. […] The aequorin-based assay was performed with or without overnight pretreatment with 100 ng/ml Pertussis toxin. […] For FPRL2 polymorphism analysis, HEK cells were transiently transfected with empty and wild-type or Asp338H is FPRL2-containing pcdna vector using calcium phosphate method. Cells were recovered 48 hours later and used for FACS or cAMP experiments.

FPRL2 [2] = molecular target: T1, FPRL2; test: Saturation and competition binding on FPRL2-expressing CHO-K1 cells, tracer F2L-[125I]Tyr; parameters: expressed in transfected cells; host or cells: CHO-K1; conditions: for competition for FPRL2 binding: up to concentrations of 3 μM, data not shown
Experimental: FPRL2, FPRL1 and FPR-expressing CHO-K1 cells were plated in 24 wells plates (200,000 cells per well for FPRL2, and 100,000 cells per well for the two other receptors). The next day, the cells were washed twice with a KRH buffer containing 280 mM saccharose and, for FPRL1 and FPR, 0.1 % NaN3. […] Cells were washed twice with ice cold buffer, total radioactivity was recovered with 1 M […] and counted in a gamma counter for […]

FPR = molecular target: T2, FPR (Homo sapiens, UniProt P21462, E346A/V101L); test: Aequorin-based assay on CHO-K1 cells expressing FPR; assay type: cell-based; conditions: FPR expressed in CHO-K1 cells
T2 construct: expressed in transfected cells; host or cells: CHO-K1 (with or without Galpha16 and apoaequorin)
T2 sequence (P21462 1-350 V101L/E346A): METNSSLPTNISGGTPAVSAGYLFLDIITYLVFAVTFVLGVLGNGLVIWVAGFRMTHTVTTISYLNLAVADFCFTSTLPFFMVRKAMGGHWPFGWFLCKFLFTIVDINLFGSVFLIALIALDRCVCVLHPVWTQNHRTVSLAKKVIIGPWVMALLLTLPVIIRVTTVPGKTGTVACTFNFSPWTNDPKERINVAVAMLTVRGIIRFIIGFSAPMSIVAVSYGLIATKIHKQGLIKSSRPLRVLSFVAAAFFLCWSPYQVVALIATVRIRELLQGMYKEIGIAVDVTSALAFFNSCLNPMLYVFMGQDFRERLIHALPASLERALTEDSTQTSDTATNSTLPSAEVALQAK
Excerpt: as §1

FPRL1 [3] = molecular target: T3, FPRL1 (Homo sapiens, UniProt P25090); test: Aequorin-based assay on CHO-K1 cells expressing FPRL1; assay type: cell-based; conditions: FPRL1 expressed in CHO-K1 cells
T3 construct: expressed in transfected cells; host or cells: CHO-K1 (with or without Galpha16 and apoaequorin)
T3 sequence (P25090 1-351): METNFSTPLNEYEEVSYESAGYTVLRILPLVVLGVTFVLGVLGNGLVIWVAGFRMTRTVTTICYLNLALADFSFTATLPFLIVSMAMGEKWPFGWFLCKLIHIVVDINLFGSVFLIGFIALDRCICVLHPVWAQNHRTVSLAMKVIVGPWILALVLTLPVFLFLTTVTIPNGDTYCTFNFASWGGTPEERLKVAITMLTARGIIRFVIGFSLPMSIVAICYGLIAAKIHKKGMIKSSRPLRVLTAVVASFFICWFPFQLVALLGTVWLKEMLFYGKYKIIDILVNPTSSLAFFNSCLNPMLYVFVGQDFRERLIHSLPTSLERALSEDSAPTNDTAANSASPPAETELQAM
Excerpt: as §1

FPRL2 [4] = molecular target: T1, FPRL2; test: Aequorine assay on human FPRL2 expressing cells (Example 9); assay type: cell-based; parameters: expressed in transfected cells; host or cells: CHO-K1 (with or without Galpha16 and apoaequorin); conditions: peptides 2.5 μM to 0.4 nM, Mab 500 ug/ml to 5 ug/ml; FIG. 15
Experimental: (§2) Functional responses were analyzed by recording the luminescence of aequorine in human FPRL2 and FPRL1 expressing cells following the addition of agonists or purified monoclonal antibodies.
(§3) In brief, cells were collected from plates with PBS containing 5 mM EDTA, pelleted, resuspend at 5×10^6 cells/ml in DMEM/F-12 medium containing 0.1% bovine serum albumin, incubated with 5 μM coelenterazine H (molecular probes, Inc. Eugene, Oreg.) for 4 h at room temperature and diluted in DMEM/F-12 medium at a concentration of 5×10^5 cells/ml. Cells where then mixed in an 96 wells plate with the ligands or purified monoclonal antibodies. The light emission was recorded over 60 sec using a microlumat Luminometer (EG&G Berthold, microplate luminometer LB 96V).
(§4) Each data point is in duplicate. […] Human FPRL1 expressing cells were used as negative control to Mab. Functionality of these cells has been control with Humanin.

FPRL1 [5] = molecular target: T3, FPRL1; test: Aequorine assay on human FPRL1 expressing cells (Example 9); assay type: cell-based; conditions: data not shown
Experimental: as §2, §3, §4

Row | Compound | competition for FPRL2 binding (FPRL2 [2]) | concentrations required to activate FPRL2 (calcium) (FPRL2 [1]) | concentrations active on FPR (FPR) | concentrations active on FPRL1 (FPRL1 [3]) | other results
1 | CSCC[C@H](NC=O)C(=O)N[C@@H](CC(C)C)C(=O)N[C@@H](Cc1ccccc1)C(=O)O [FMLP, formyl-methionine-leucyl-phenylalanine] | did not compete | – | – | – | activity on FPRL2 (FPRL2 [1]; FPRL2-expressing cells): inactive
2 | CSCC[C@H](NC(=O)[C@@H](NC(=O)[C@H](CCSC)NC(=O)[C@H](Cc1ccc(O)cc1)NC(=O)[C@H](CCCCN)NC(=O)[C@@H](N)Cc1c[nH]c2ccccc12)C(C)C)C(N)=O [WKYMVM] | did not compete | micromolar concentrations | low nanomolar concentrations | low nanomolar concentrations | –
3 | NSLFGSVETWPWQVL [F2L[7-21], truncated F2L variant lacking the first six aminoacids] | – | – | – | – | activity in aequorin assay (FPRL2 [1]; FIG. 11H): totally inactive; activity in binding assay (FPRL2 [2]; not shown): totally inactive
4 | Humanin: Humanin (HN(N)) peptide (Phoenix Pharmaceuticals), disclosed as a ligand for FPRL2 and FPRL1 [reference compound] | – | – | – | – | activation of human FPRL2 expressing cells (FPRL2 [4]): activates; activation of human FPRL1 expressing cells (FPRL1 [5]): activates
5 | Pertussis toxin | – | – | – | – | effect of pretreatment on F2L calcium signaling (FPRL2 [1]; 100 ng/ml overnight pretreatment, FIG. 11G): totally inhibited
6 | CSCC[C@H](NC(=O)[C@H](Cc1ccc(O)cc1)NC(=O)[C@H](CCCCN)NC(=O)[C@@H](N)Cc1c[nH]c2ccccc12)C(=O)N[C@H](C(=O)N[C@H](CCSC)C(N)=O)C(C)C [WKYMVm] | did not compete | micromolar concentrations | low nanomolar concentrations | low nanomolar concentrations | –

— patent US7659251B2, “Ligand for G-protein coupled receptor FPRL2” (priority 2004, dated 2010)
